Test results reported in US7365088B2, “Indazole-derivatives as factor Xa inhibitors” (Sanofi-Aventis Deutschland GmbH, priority 2003, dated 2008).

Molecular target: human factor Xa (Homo sapiens, UniProt P00742)
Experiment: Factor Xa assay (chromogenic, substrate S-2765)

Chain of human factor Xa (P00742 235-488 limits assumed): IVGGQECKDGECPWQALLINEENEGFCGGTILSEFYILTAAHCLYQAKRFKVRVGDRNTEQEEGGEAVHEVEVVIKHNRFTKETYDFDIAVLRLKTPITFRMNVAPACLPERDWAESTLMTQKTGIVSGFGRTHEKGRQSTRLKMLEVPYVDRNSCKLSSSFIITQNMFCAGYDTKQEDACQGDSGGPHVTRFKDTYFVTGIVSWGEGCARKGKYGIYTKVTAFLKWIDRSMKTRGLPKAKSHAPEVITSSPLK
Chain of human factor Xa (P00742 41-179 partner limits assumed): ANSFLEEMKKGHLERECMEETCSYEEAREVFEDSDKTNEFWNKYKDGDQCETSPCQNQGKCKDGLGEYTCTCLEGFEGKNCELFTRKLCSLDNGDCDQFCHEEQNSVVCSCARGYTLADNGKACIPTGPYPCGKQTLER

| Ki | Structure (SMILES) |
| --- | --- |
| 180 nM | O=C(Nc1ccc(-c2c[nH]cn2)cc1)c1nn(Cc2cc(-c3ccc(Cl)s3)on2)c2ccccc12 [Example 45, 1-[5-(5-Chloro-thiophen-2-yl)-isoxazol-3-ylmethyl]-1H-indazole-3-carboxylic acid [4-(1H-imidazol-4-yl)-phenyl]-amide] |
| 43 nM | COCCOC(=O)c1ccc2c(c1)c(C(=O)NC1CCN(C(C)C)CC1)nn2Cc1cc(-c2ccc(Cl)s2)on1 [Example 56, 1-[5-(5-Chloro-thiophen-2-yl)-isoxazol-3-ylmethyl]-3-(1-isopropyl-piperidin-4-ylcarbamoyl)-1H-indazole-5-carboxylic acid 2-methoxy-ethyl ester] |
| 39 nM | CC(C)N1CCC(NC(=O)c2nn(Cc3cc(-c4ccc(Cl)s4)on3)c3ccc(C(=O)OCCO)cc23)CC1 [Example 29, 1-[5-(5-Chloro-thiophen-2-yl)-isoxazol-3-ylmethyl]-3-(1-isopropyl-piperidin-4-ylcarbamoyl)-1H-indazole-5-carboxylic acid 2-hydroxy-ethyl ester] |
| 240 nM | O=C(Cn1nc(C(=O)Nc2ccc(N3CCOCC3=O)cc2)c2ccccc21)Nc1ccc(Cl)cn1 [Example 53, 1-[(5-Chloro-pyridin-2-ylcarbamoyl)-methyl]-1H-indazole-3-carboxylic acid [4-(3-oxo-morpholin-4-yl)-phenyl]-amide] |
| 210 nM | O=C(c1nn(Cc2cc(-c3ccc(Cl)s3)on2)c2ccccc12)N1CCC(N2CCCC2=O)CC1 [Example 37, 1-(1-{1-[5-(5-Chloro-thiophen-2-yl)-isoxazol-3-ylmethyl]-1H-indazole-3-carbonyl}-piperidin-4-yl)-pyrrolidin-2-one] |
| 730 nM | CC1CC(=O)NN=C1c1ccc(NC(=O)c2nn(Cc3cc(-c4ccc(Cl)s4)on3)c3ccccc23)cc1 (stereo not shown) [Example 43, 1-[5-(5-Chloro-thiophen-2-yl)-isoxazol-3-ylmethyl]-1H-indazole-3-carboxylic acid [4-(4-methyl-6-oxo-1,4,5,6-tetrahydro-pyridazin-3-yl)-phenyl]-amide] |
| 9 nM | COC(=O)c1ccc2c(c1)c(C(=O)Nc1ccc(N3CCOCC3=O)cc1)nn2Cc1cc(-c2ccc(Cl)s2)on1 [Example 47, 1-[5-(5-Chloro-thiophen-2-yl)-isoxazol-3-ylmethyl]-3-[4-(3-oxo-morpholin-4-yl)-phenylcarbamoyl]-1H-indazole-5-carboxylic acid methyl ester] |
| 14 nM | CC(C)N1CCC(NC(=O)c2nn(Cc3cc(-c4ccc(Cl)s4)on3)c3ccc(C(=O)NCC(=O)O)cc23)CC1 [Example 25, {[1-[5-(5-Chloro-thiophen-2-yl)-isoxazol-3-ylmethyl]-3-(1-isopropyl-piperidin-4-ylcarbamoyl)-1H-indazole-5-carbonyl]-amino}-acetic acid] |
| 28 nM | CC(C)N1CCC(NC(=O)c2nn(Cc3cc(-c4ccc(Cl)s4)on3)c3ccc(C(=O)NCCS(N)(=O)=O)cc23)CC1 [Example 14, 1-[5-(5-Chloro-thiophen-2-yl)-isoxazol-3-ylmethyl]-1H-indazole-3,5-dicarboxylic acid 3-[(1-isopropyl-piperidin-4-yl)-amide]5-[(2-sulfamoyl-ethyl)-amide]] |
| 46 nM | CC(C)N1CCC(NC(=O)c2nn(Cc3cc(-c4ccc(Cl)s4)on3)c3ccc(C(=O)NCCN4CCOCC4)cc23)CC1 [Example 15, 1-[5-(5-Chloro-thiophen-2-yl)-isoxazol-3-ylmethyl]-1H-indazole-3,5-dicarboxylic acid 3-[(1-isopropyl-piperidin-4-yl)-amide]5-[(2-morpholin-4-yl-ethyl)-amide]] |
| 530 nM | O=C(Nc1ccc(C(=O)N2CCOCC2)cc1)c1nn(Cc2cc(-c3ccc(Cl)s3)on2)c2ccccc12 [Example 35, 1-[5-(5-Chloro-thiophen-2-yl)-isoxazol-3-ylmethyl]-1H-indazole-3-carboxylic acid [4-(morpholine-4-carbonyl)-phenyl]-amide] |
| 28 nM | CC(C)N1CCC(NC(=O)c2nn(Cc3cc(-c4ccc(Cl)s4)on3)c3ccc(C(=O)NCCO)cc23)CC1 [Example 22, 1-[5-(5-Chloro-thiophen-2-yl)-isoxazol-3-ylmethyl]-1H-indazole-3,5-dicarboxylic acid 5-[(2-hydroxy-ethyl)-amide]3-[(1-isopropyl-piperidin-4-yl)-amide]] |
| 7 nM | CS(=O)(=O)c1ccccc1-c1ccc(NC(=O)c2nn(Cc3cc(-c4ccc(Cl)s4)on3)c3ccccc23)cc1 [Example 41, 1-[5-(5-Chloro-thiophen-2-yl)-isoxazol-3-ylmethyl]-1H-indazole-3-carboxylic acid (2′-methanesulfonyl-biphenyl-4-yl)-amide] |
| 7 nM | CC(C)N1CCC(NC(=O)c2nn(Cc3cc(-c4ccc(Cl)s4)on3)c3cccc(-c4noc(=O)[nH]4)c23)CC1 [Example 11, 1-[5-(5-Chloro-thiophen-2-yl)-isoxazol-3-ylmethyl]-4-(5-oxo-4,5-dihydro-[1,2,4]oxadiazol-3-yl)-1H-indazole-3-carboxylic acid (1-isopropyl-piperidin-4-yl)-amide] |
| 17 nM | COC(=O)c1cccc2c(C(=O)NC3CCN(C(C)C)CC3)nn(Cc3cc(-c4ccc(Cl)s4)on3)c12 [Example 3, 1-[5-(5-Chloro-thiophen-2-yl)-isoxazol-3-ylmethyl]-3-(1-isopropyl-piperidin-4-ylcarbamoyl)-1H-indazole-7-carboxylic acid methyl ester] |
| 35 nM | COC(=O)c1ccc2c(C(=O)NC3CCN(C(C)C)CC3)nn(Cc3cc(-c4ccc(Cl)s4)on3)c2c1 [Example 2, 1-[5-(5-Chloro-thiophen-2-yl)-isoxazol-3-ylmethyl]-3-(1-isopropyl-piperidin-4-ylcarbamoyl)-1H-indazole-6-carboxylic acid methyl ester] |
| 41 nM | Cc1oc(=O)oc1COC(=O)c1ccc2c(c1)c(C(=O)NC1CCN(C(C)C)CC1)nn2Cc1cc(-c2ccc(Cl)s2)on1 [Example 50, 1-[5-(5-Chloro-thiophen-2-yl)-isoxazol-3-ylmethyl]-3-(1-isopropyl-piperidin-4-ylcarbamoyl)-1H-indazole-5-carboxylic acid 5-methyl-2-oxo-[1,3]dioxol-4-ylmethyl ester] |
| 22 nM | CONC(=O)c1ccc2c(c1)c(C(=O)NC1CCN(C(C)C)CC1)nn2Cc1cc(-c2ccc(Cl)s2)on1 [Example 32, 1-[5-(5-Chloro-thiophen-2-yl)-isoxazol-3-ylmethyl]-1H-indazole-3,5-dicarboxylic acid 3-[(1-isopropyl-piperidin-4-yl)-amide]5-(methoxy-amide)] |
| 5 nM | CC(C)N1CCC(NC(=O)c2nn(Cc3cc(-c4ccc(Cl)s4)on3)c3ccc(C(=O)N4CCC4)cc23)CC1 [Example 12, 5-(Azetidine-1-carbonyl)-1-[5-(5-chloro-thiophen-2-yl)-isoxazol-3-ylmethyl]-1H-indazole-3-carboxylic acid (1-isopropyl-piperidin-4-yl)-amide] |
| 33 nM | CC(C)N1CCC(NC(=O)c2nn(Cc3cc(-c4ccc(Cl)s4)on3)c3ccc(C(=O)NCCN4CCNC4=O)cc23)CC1 [Example 23, 1-[5-(5-Chloro-thiophen-2-yl)-isoxazol-3-ylmethyl]-1H-indazole-3,5-dicarboxylic acid 3-[(1-isopropyl-piperidin-4-yl)-amide]5-{[2-(2-oxo-imidazolidin-1-yl)-ethyl]-amide}] |
| 79 nM | COC(=O)c1ccc2c(c1)c(C(=O)NC1CCN(C(C)C)CC1)nn2Cc1cc(-c2ccc(Cl)s2)on1 [Example 1, 1-[5-(5-Chloro-thiophen-2-yl)-isoxazol-3-ylmethyl]-3-(1-isopropyl-piperidin-4-ylcarbamoyl)-1H-indazole-5-carboxylic acid methyl ester] |
| 40 nM | CC(C)N1CCC(NC(=O)c2nn(Cc3cc(-c4ccc(Cl)s4)on3)c3ccc(C(=O)NCCS(C)(=O)=O)cc23)CC1 [Example 13, 1-[5-(5-Chloro-thiophen-2-yl)-isoxazol-3-ylmethyl]-1H-indazole-3,5-dicarboxylic acid 3-[(1-isopropyl-piperidin-4-yl)-amide]5-[(2-methanesulfonyl-ethyl)-amide]] |
| 47 nM | CC(C)N1CCC(NC(=O)c2nn(Cc3cc(-c4ccc(Cl)s4)on3)c3ccc(C(=O)NCC(F)F)cc23)CC1 [Example 20, 1-[5-(5-Chloro-thiophen-2-yl)-isoxazol-3-ylmethyl]-1H-indazole-3,5-dicarboxylic acid 5-[(2,2-difluoro-ethyl)-amide]3-[(1-isopropyl-piperidin-4-yl)-amide]] |
| 13 nM | CC(C)N1CCC(NC(=O)c2nn(Cc3cc(-c4ccc(Cl)s4)on3)c3ccc(C(=O)N(C)CCO)cc23)CC1 [Example 18, 1-[5-(5-Chloro-thiophen-2-yl)-isoxazol-3-ylmethyl]-1H-indazole-3,5-dicarboxylic acid 5-[(2-hydroxy-ethyl)-methyl-amide]3-[(1-isopropyl-piperidin-4-yl)-amide]] |
| 17 nM | CC(C)N1CCC(NC(=O)c2nn(Cc3cc(-c4ccc(Cl)s4)on3)c3ccc(C(=O)N4CC[C@H]4C(=O)O)cc23)CC1 [Example 26, 1-[1-[5-(5-Chloro-thiophen-2-yl)-isoxazol-3-ylmethyl]-3-(1-isopropyl-piperidin-4-ylcarbamoyl)-1H-indazole-5-carbonyl]-(2S)-azetidine-2-carboxylic acid] |

| Structure (SMILES) | Ki |
| --- | --- |
| CC(C)N1CCC(NC(=O)c2nn(Cc3cc(-c4ccc(Cl)s4)on3)c3cc(C(=O)O)ccc23)CC1 [Example 6, 1-[5-(5-Chloro-thiophen-2-yl)-isoxazol-3-ylmethyl]-3-(1-isopropyl-piperidin-4-ylcarbamoyl)-1H-indazole-6-carboxylic acid] | 212 nM |
| CC(C)N1CCC(NC(=O)c2nn(Cc3cc(-c4ccc(Cl)s4)on3)c3ccccc23)CC1 [Example 8, 1-[5-(5-Chloro-thiophen-2-yl)-isoxazol-3-ylmethyl]-1H-indazole-3-carboxylic acid (1-isopropyl-piperidin-4-yl)-amide] | 6 nM |
| CC(C)N1CCC(NC(=O)c2nn(Cc3cc(-c4ccc(Cl)s4)on3)c3cccc(C#N)c23)CC1 [Example 10, 1-[5-(5-Chloro-thiophen-2-yl)-isoxazol-3-ylmethyl]-4-cyano-1H-indazole-3-carboxylic acid (1-isopropyl-piperidin-4-yl)-amide] | 9 nM |
